Patent US20100179176A1, “V3 ANTAGONISTS FOR THE TREATMENT OR PREVENTION OF CHRONIC PAIN” (N.V. Organon, priority 2007, published 2010)

Experiments:
[1] = test system: tail flick latency in mice; test: Mouse tail flick assay of acute thermal pain; type: in vivo; conditions: for Tail Flick Latency: mouse; for Effect on tail flick latencies (in words): oral administration, three doses, mouse, 20, 40 and 60 min post administration
Method: The tail flick test is used to evaluate the antinociceptive activity of test compounds in mice. Animals are placed on the tail flick apparatus and their tails exposed to a focused beam of radiant heat. The mice react to the noxious thermal stimulus by flicking their tail away from the heat source. The time taken for these responses to occur is measured (latency; s).
Experiments were performed using male ICR mice weighing (25-32 g). In brief, animals were held in place on the tail flick apparatus (Ugo Basile, Italy) by means of a perspex restrainer and their tail was positioned over the heat source. The latency to flick the tail from the radiant heat source focussed 2.5 cm from the tip was determined before (baseline readings) and at regular intervals after administration of the vehicle or test compounds (compound 1, 5.6-55.6 μmol/kg p.o.; compound 2, 5.3-52.6 μmol/kg p.o.). A 12 seconds cut-off was employed to prevent tissue damage.
Data are expressed as mean±s.e.m. and compared between groups using the Kruskal-Wallis one-way analysis of variance, a non-parametric statistical test. If statistical significance (P<0.05) is observed with this test, the vehicle group and each of the treatment groups is compared using the non-parametric Dunn's test.

[2] = test system: mechanical allodynia induced by spinal nerve ligation in rats; test: Rat (Chung) model of neuropathic pain, von Frey paw withdrawal threshold; type: in vivo; conditions: for Withdrawal threshold (g) at peak effect: spinal nerve ligation; for Effect on mechanical allodynia (in words): oral administration, three doses; for ED50: po, read-out: ED50 at peak effect (dose at which allodynia is reversed by 50%)
Method: In this model, mechanical allodynia is induced by tight ligation of the left L5 spinal nerve.
Male Wistar rats (150-175 g body weight at time of surgery) were employed in the study. Rats were placed on an elevated (˜40 cm) mesh floor in perspex boxes and the rats' withdrawal threshold to a mechanical stimulus (calibrated von Frey filaments) was measured using filaments of increasing force (2.6-167 mN). The von Frey filaments were applied to the plantar surface of the paw and the thershold response was determined using the up and down method. A positive response was noted if the paw was sharply withdrawn. A cut-off of 15 g was selected as the upper limit for testing. Following baseline measurements each animal was anaesthetised and the L5 spinal nerve tightly ligated. The animals were allowed to recover from the surgery for a period of at least three days. On the day of drug administration the paw withdrawal thresholds were re-measured (0 min). Immediately after this reading, the rats were dosed orally with vehicle or test compound. Readings were then made at intervals of 30, 60, 120, 180 and 240 min after compound administration.
Data were expressed as mean±s.e.m. The time of maximum effect for each animal in the top dose group was determined and these values averaged to calculate the mean time of maximum effect. For analytical purposes the time of maximum effect, tmax was defined as the time point closest to this averaged value. Data at tmax were compared between groups using the Kruskal-Wallis one-way analysis of variance, a non-parametric statistical test. Each of the treatment groups were then compared against the vehicle group, using the non-parametric Dunn's test. The ED50 (dose at which allodynia is reversed by 50%) value was also calculated at tmax using non linear regression (sigmoidal dose response; variable slope) with constants of 0 and 15 g (cut-off) for the bottom and top, respectively (XLFit software).

[3] = test system: mechanical hyperalgesia induced by complete Freund's adjuvant in rats; test: Rat CFA model of inflammatory pain, Randall-Sellito paw withdrawal threshold; type: in vivo; conditions: for % Attenuation of hyperalgesia (peak effect): 7 days after CFA, peak effect 30 min
Method: In this model, inflammation is induced by subcutaneous injection of complete Freund's adjuvant (CFA) into the hind paw. The associated mechanical hyperalgesia is quantified by measuring the reduction in paw withdrawal threshold (PWT) to a mechanical compression of the paw.
Experiments were in male Wistar rats weighing (130-180 g). In brief, the rats' paw withdrawal threshold (PWT) to a mechanical compression of the hind paw was measured (baseline reading) using a Randall-Sellito apparatus (Ugo Basile). A cut-off of 200 g was employed to minimise tissue damage to the paw. The animals were then lightly anaesthetised with isoflurane (1-3%) and CFA (0.1 ml·paw^−1) injected subcutaneously (s.c.) into the plantar surface of the left hind paw. The animals were then returned to their home cage and left for the inflammation to develop.
Seven days after CFA injection, PWT's were re-measured (0 min) and immediately after this reading, rats were dosed orally with either vehicle or compound 2 (3-30 mg/kg). Readings were then made at 30 min and 2 h post drug administration.
Data were plotted as mean±s.e.m. and compared between groups using the Kruskal-Wallis one-way analysis of variance, a non-parametric statistical test. […] The percent attenuation of mechanical hyperalgesia is calculated at time of peak effect (tmax)

[4] = test system: tolerance development to the analgesic activity of morphine; conditions: Database WPI, Derwent abstract; cited from earlier work

**Q.** Which results are given for COc1cc(-c2nc3ccc(-c4cccc(CN(C)C)c4)cc3c(=O)n2CC(=O)NC(C)C)ccc1F [Compound 1, 2-[6-(3-Dimethylaminomethylphenyl)-2-(4-fluoro-3-methoxyphenyl)-4-oxo-4H-quinazolin-3-yl]-N-isopropylacetamide]?
**A.** Tail Flick Latency ([1]; 5.6 μmol/kg p.o., 20 min post dose): 3.5 ± 0.4 s; Tail Flick Latency ([1]; 5.6 μmol/kg p.o., 40 min post dose): 3.4 ± 0.2 s; Tail Flick Latency ([1]; 5.6 μmol/kg p.o., 60 min post dose): 3.5 ± 0.2 s; Tail Flick Latency ([1]; 18.6 μmol/kg p.o., 20 min post dose): 3.4 ± 0.3 s; Tail Flick Latency ([1]; 18.6 μmol/kg p.o., 40 min post dose): 3.5 ± 0.2 s; Tail Flick Latency ([1]; 18.6 μmol/kg p.o., 60 min post dose): 3.1 ± 0.2 s; Tail Flick Latency ([1]; 55.6 μmol/kg p.o., 20 min post dose): 3.3 ± 0.3 s; Tail Flick Latency ([1]; 55.6 μmol/kg p.o., 40 min post dose): 3.5 ± 0.3 s; Tail Flick Latency ([1]; 55.6 μmol/kg p.o., 60 min post dose): 3.3 ± 0.2 s; Effect on tail flick latencies (in words) [1]: had no effect on tail flick latencies; Withdrawal threshold (g) at peak effect ([2]; 5.6 μmol/kg p.o., peak effect 120 min): 4.6 ± 0.6 g; Withdrawal threshold (g) at peak effect ([2]; 18.6 μmol/kg p.o., peak effect 120 min): 5.6 ± 1.1 g; Withdrawal threshold (g) at peak effect ([2]; 55.6 μmol/kg p.o., peak effect 120 min): 11.4 ± 0.7 g; Effect on mechanical allodynia (in words) [2]: reversed mechanical allodynia in a dose-dependent fashion; Time of peak anti-allodynic effect post drug administration ([2]; p.o.): 120 min; ED50 ([2]; at tmax): 21.2 µmol/kg

**Q.** Which results are given for CC(C)NC(=O)Cn1c(-c2cccc(Cl)c2)nc2ccc(OCCCN3CCCCC3)cc2c1=O [Compound 2]?
**A.** % Attenuation of hyperalgesia (peak effect) ([3]; 5.7 μmol/kg p.o.): 31.5 ± 9.4%; % Attenuation of hyperalgesia (peak effect) ([3]; 18.9 μmol/kg p.o.): 43.1 ± 8.6 %; % Attenuation of hyperalgesia (peak effect) ([3]; 56.6 μmol/kg p.o.): 84.4 ± 12.0 %; Effect on mechanical hyperalgesia induced by CFA (in words) ([3]; oral administration 5.7, 18.9 or 56.6 μmol/kg): reversed mechanical hyperalgesia induced by CFA in a dose-dependent fashion; ED50 at peak effect (mechanical hyperalgesia) ([3]; p.o., CFA): 19.2 µmol/kg; Time of peak anti-algesic effect post drug administration ([3]; p.o., CFA): 30 min; Tail Flick Latency ([1]; 5.3 μmol/kg p.o., 20 min post dose): 3.4 ± 0.2 s; Tail Flick Latency ([1]; 5.3 μmol/kg p.o., 40 min post dose): 3.7 ± 0.2 s; Tail Flick Latency ([1]; 5.3 μmol/kg p.o., 60 min post dose): 3.6 ± 0.1 s; Tail Flick Latency ([1]; 17.3 μmol/kg p.o., 20 min post dose): 3.6 ± 0.1 s; Tail Flick Latency ([1]; 17.3 μmol/kg p.o., 40 min post dose): 3.6 ± 0.1 s; Tail Flick Latency ([1]; 17.3 μmol/kg p.o., 60 min post dose): 3.1 ± 0.1 s; Tail Flick Latency ([1]; 52.6 μmol/kg p.o., 20 min post dose): 3.5 ± 0.2 s; Tail Flick Latency ([1]; 52.6 μmol/kg p.o., 40 min post dose): 3.5 ± 0.2 s; Tail Flick Latency ([1]; 52.6 μmol/kg p.o., 60 min post dose): 3.2 ± 0.2 s; Effect on tail flick latencies (in words) [1]: had no effect on tail flick latencies; Withdrawal threshold (g) at peak effect ([2]; 5.3 μmol/kg p.o., peak effect 30 min): 4.8 ± 1.0 g; Withdrawal threshold (g) at peak effect ([2]; 17.3 μmol/kg p.o., peak effect 30 min): 6.7 ± 1.1 g; Withdrawal threshold (g) at peak effect ([2]; 52.6 μmol/kg p.o., peak effect 30 min): 9.8 ± 1.8 g; Effect on mechanical allodynia (in words) [2]: reversed mechanical allodynia in a dose-dependent fashion; Time of peak anti-allodynic effect post drug administration ([2]; p.o.): 30 min; ED50 at peak effect (dose at which allodynia is reversed by 50%) ([2]; p.o., at tmax): 21.0 µmol/kg

**Q.** Which “Effect on tolerance development to the analgesic activity of morphine (in words)” value [4] does the source give for COc1ccc(S(=O)(=O)N2C(=O)[C@@](c3ccccc3OC)(N3C[C@H](O)C[C@H]3C(=O)N(C)C)c3cc(Cl)ccc32)c(OC)c1 [Compound 3, reference compound] here?
**A.** inhibits the tolerance development to the analgesic activity of morphine

**Q.** And the “Withdrawal threshold (g) at peak effect” value ([2]; 3 μmol/kg p.o., peak effect 180 min)?
**A.** 5.0 ± 1.0 g

**Q.** And the “Withdrawal threshold (g) at peak effect” value ([2]; 10 μmol/kg p.o., peak effect 180 min)?
**A.** 6.9 ± 1.3 g

**Q.** What about the “Withdrawal threshold (g) at peak effect” value ([2]; 30 μmol/kg p.o., peak effect 180 min) of the same compound?
**A.** 10.1 ± 1.4 g

**Q.** And the “Effect on mechanical allodynia (in words)” value [2]?
**A.** reversed mechanical allodynia in a dose-dependent fashion

**Q.** And the “Time of peak anti-allodynic effect post drug administration” value ([2]; p.o.)?
**A.** 180 min

**Q.** What about the ED50 ([2]; at tmax) of the same compound?
**A.** 10.6 µmol/kg
